Experimental data reported in article PMC7053198 (Theranostics, 2020).

Test system: A375Pβ6 cells
Conditions: A375Pβ6, αvβ6 positive; 72 h treatment, MTT assay; ±SD, n=3

In the case of `COc1cc2c(cc1OCCCCCOc1cc3c(cc1OC)C(=O)N1C=C(C)C[C@H]1C=N3)N=C[C@@H]1CC(C)=CN1C2=O` [SG3199, reference compound], the IC50 is reported as 0.11 ± 0.08 nM.
